The text below walks through data of US6458872B1, “Benzotriazole UV absorbers having enhanced durability” (Ciba Specialty Chemicals Corporation, priority 1997, dated 2002).

Common to all, as to type: physicochemical
A short description of series [1]: Durability in solvent cast PVC films, Atlas C165 Weather-Ometer (Example 83). The following applies: PVC film; for % Loss / Absorbance (max) Loss units: 1100 hrs. How it is done:
(§1) The durability of representative benzotriazoles in thermoplastic substrates is determined by incorporating various test compounds into solvent cast films of poly(vinyl chloride), polycarbonate and polystyrene resins. The free standing films are mounted into cardboard holders, secured in metal frames and exposed in an Atlas C165 Xenon-arc Weather-Ometer under dry conditions according to ASTM G26 for 1100 and 2200 hour exposure. Loss of UV absorber is determined by monitoring the loss of diagnostic UV absorption as described earlier. Performance is measured by a change in color or the physical integrity of the film.
PVC films of GEON® 27 (Geon Co.) are solvent cast as described above with warm tetrahydrofuran (THF) and exposed in an Atlas C165 Weather-Ometer as described in Example 60 for 1100 hours.

Series [2] is described as follows: Durability in solvent cast polycarbonate film, Atlas C165 Xenon-arc, ASTM G26 (Example 80). The following applies: for % Loss / Absorbance (max) Loss units: 1100 hrs. Here is the method: as §1
Polycarbonate flake (LEXAN® 145, General Electric) is dissolved in methylene chloride at room temperature along with between 1 and 3% by weight of test benzotriazole, based on the polycarbonate. Films are cast using a calibrated drawdown bar to prepare 1 mil thick film after drying.

A short description of series [3]: Yellowness color of solutions in butyl acetate, Macbeth Color-Eye (Example 75). The following applies: 30 mg/100 mL in butyl acetate; for DE: corresponding Yellowness Index value; for b: yellowness, Macbeth Color-Eye. How it is done: The following examples show the difference in color between some of the instant compounds as measured by a Macbeth Color-Eye instrument at a concentration of 30 mg/100 mL in butyl acetate. […] In the table, the compounds are listed by increasing b value. The instrument measures yellowness as b and DE is the corresponding Yellowness Index value.

Series [4] is described as follows: UV absorption data (Example 74). More on the design: ε @ λ max: unit not given beside the values.
The nature of series [5]: UV absorption data (Example 74). The following applies: 20 mg/l concentrations; not the molar extinction values. Here is the method:
In the following examples the absorbance at 375 nm is reported for 20 mg/l concentrations. This is not the molar extinction values.

The nature of series [6]: Loss of UV absorber from high solids thermoset acrylic clear coat, Xenon Arc Weather-Ometer (Example 77). The following applies: after 1211 hours Xenon arc exposure; clear coat with 1% hindered amine; UV absorber at 5 mmol % by weight. How it is done:
To ascertain the effect on thermal durability and loss rate from a high solids thermoset acrylic coating of various 2H-benzotriazole UV absorbers substituted by a variety of electron withdrawing and electron donating groups, the following tests are carried out.
A high solids thermoset acrylic clear coat is prepared by mixing an experimental acrylic polyol resin and hexamethoxymethylmelamine (Resimene® 747, Monsanto) at a solids ratio of 60/40. The dodecylbenzene sulfonic acid catalyst (Nacure® 5225; King Industries) is added at 0.70% by weight. A flow aid Modaflow® (Monsanto) is added at 0.25% by weight to form a model acrylic melamine resin system.
The model clear coat is reduced with xylene to a viscosity of 26-27 second using a Zahn #2 cup and applied via a conventional air spray at 50 psi (3.5 Kg/cm^2) over a 1″×3″ (2.54 cm×7.62 cm) quartz slide. Cure is achieved by baking the slide for 30 minutes at 260° F. (127° C.). The clear coat is stabilized with 1% by weight of a hindered amine light stabilizer, bis-(1-octyloxy-2,2,6,6-tetramethylpiperidin-4-yl)sebacate, (TINUVIN® 123, Ciba-Geigy). The various test benzotriazole UV absorbers are incorporated at the 5 mmol % by weight in the clear coat. The film thickness on the quartz slides range from 1.15 to 1.41 mils (0.029 to 0.036 mm).
The films on the quartz slides are weathered according to the following conditions in Xenon Arc Weather-Ometer with a controlled irradiance at 6500 W, using inner quartz and outer borosilicate S-type filter. The irradiation cycle is as follows: 40 minutes of straight irradiation with no water spray, followed by 20 minutes of light plus front spray, followed by 60 minutes of light irradiation and finally by 60 minutes dart plus rear spray (condensation). The setting is at 0.55 W/M^2 at 340 nm, 1.98 kJ/hour. In the light cycle the black panel temperature is controlled at 70±2° C. The relative humidity in the light cycle is in the range of 50-55% and in the dark cycle 100%. The absorbance of the long wavelength UV band as a function of Xenon arc weathering hours are recorded in the table below.
To follow the loss of UV absorbers from the clear coats, UV spectra are measured initially and after weathering at regular time intervals. The UV spectrophotometer measures absorbance linearly up to 5.5 absorbance units using a reference beam attenuation technique.
This is tested by following the ratio of absorbance of the band at about 300 nm and the band at about 340 nm.
The data in the table below are based on formula A after 1211 hours of exposure of the clear coats containing the test benzotriazole UV absorbers.

The nature of series [7]: Loss of UV absorber from high solids thermoset acrylic melamine clear coat, Xenon-Arc X180 cycle (Example 78). The following applies: for durability (low loss rate absorbance values after exposure): in words, summary of the tables of Example 78. The source says:
Following the general procedure of Example 77, a number of additional benzotriazole test compounds are incorporated into a high solids thermoset acrylic melamine resin at such concentrations between 1.93 and 3% by weight to give equal molar concentrations of test benzotriazole in equal film thickness, and sufficient to give a starting absorbance of approximately 2.0 absorbance units.
The test discs are exposed in a Xenon-Arc Weather-Ometer at X180 cycle (0.45 Watts/M^2). The initial UV absorbance is measured followed by measurements at roughly 250 hour intervals for the first 2000 hours and every 500 hours thereafter. Each clear coat also contains 1% by weight of a hindered amine light stabilizer, bis-(1-octyloxy-2,2,6,6-tetramethylpiperidin-4-yl) sebacate, as well.

The mark [8] stands for this setting: after 1253 hours of exposure, starting absorbance approximately 2.0, 1% hindered amine.

As to `CCCCCCCCCS(=O)(=O)c1ccc2nn(-c3cc(C(C)(C)CC(C)(C)C)cc(C(C)(C)c4ccccc4)c3O)nc2c1` [AA, 5-nonylsulfonyl-2-(2-hydroxy-3-α-cumyl-5-tert-octylphenyl)-2H-benzotriazole], the entries for the “Absorbance (max) 1100 hrs” value in series [1] (2.5 wt %) and in series [2] (2.5 wt %) were 1.103 and 1.300, respectively. Besides, the entries for the “% Loss” value in series [1] (2.5 wt %) and in series [2] (2.5 wt %) were 3.1% and 2.5%, respectively. Further, the “Absorbance (max) Loss units” value in series [1] (2.5 wt %) came to 0.036; in series [2] (2.5 wt %), 0.033. Further, the “Absorbance (max) 0 hrs” value came out at 1.149 in series [1] (2.5 wt %, AA at 368 nm) and 1.333 in series [2] (2.5 wt %, AA at 364 nm).
In series [3], `CCCCS(=O)(=O)c1ccc2nn(-c3cc(C(C)(C)CC(C)(C)C)cc(C(C)(C)c4ccccc4)c3O)nc2c1` [CC, 5-butylsulfonyl-2-(2-hydroxy-3-α-cumyl-5-tert-octylphenyl)-2H-benzotriazole] returned a DE of 3.35 and a b of 2.84. Further, in series [4], the “ε @ λ max” value was 14,100 and the λ max nm came to 359 nm. Further, the “Absorbance @ 375 nm” value in series [5] was determined as 0.42.
Turning to `CC(C)(C)CC(C)(C)c1ccc(O)c(-n2nc3ccccc3n2)c1` [Compound A, 2-(2-hydroxy-5-tert-octylphenyl)-2H-benzotriazole], the “Units Absorbance Loss” value in series [6] is given as 1.7982.
`CC(C)(C)CC(C)(C)c1cc(Cc2cc(C(C)(C)CC(C)(C)C)cc(-n3nc4ccccc4n3)c2O)c(O)c(-n2nc3ccccc3n2)c1` [Compound B, 2,2′-Methylene-bis[6-(2H-benzotriazol-2-yl)-4-tert-octylphenol]]: the “Units Absorbance Loss” value in series [6] is given as 1.6300.
For `CC(C)(C)c1cc(CCCO)cc(-n2nc3ccccc3n2)c1O` [Compound L], in series [6], the “Units Absorbance Loss” value is recorded as 0.3712.
Turning to `CC(C)(c1ccccc1)c1cc(-n2nc3ccccc3n2)c(O)c(C(C)(C)c2ccccc2)c1` [Compound P, 2-(2-hydroxy-3,5-di-α-cumylphenyl)-2H-benzotriazole], the “Absorbance (max) 1100 hrs” value in series [1] (1.5 wt %) came to 1.022; in series [1] (2.5 wt %), 2.081; in series [2] (1.5 wt %), 0.919; in series [2] (2.5 wt %), 1.844. The “% Loss” value in series [1] (1.5 wt %) was 10.7%; in series [1] (2.5 wt %) it was 5.6%; in series [2] (1.5 wt %), 13.5%; in series [2] (2.5 wt %), 12.3%. The “Absorbance (max) Loss units” value in series [1] (1.5 wt %) turned out to be 0.123; in series [1] (2.5 wt %) it was 0.130; in series [2] (1.5 wt %), 0.143; in series [2] (2.5 wt %), 0.260. In addition, the “Absorbance (max) 0 hrs” value in series [1] (1.5 wt %, P at 347 nm) stood at 1.145; in series [1] (2.5 wt %, AA at 368 nm), 2.211; in series [2] (1.5 wt %, P at 347 nm), 1.062; in series [2] (2.5 wt %, AA at 364 nm) it was 2.104. In series [6], the “Units Absorbance Loss” value was determined as 0.2576.
Turning to `COC(=O)c1ccc2nn(-c3cc(C(C)(C)CC(C)(C)C)cc(C(C)(C)c4ccccc4)c3O)nc2c1` [DD, 5-carbomethoxy-2-(2-hydroxy-3-α-cumyl-5-tert-octylphenyl)-2H-benzotriazole], in series [3], the DE amounted to 2.25 and the b stood at 1.85. For the same compound, in series [4], the “ε @ λ max” value is reported as 15,700 and the λ max nm is given as 358 nm. Also, the “Absorbance @ 375 nm” value in series [5] is reported as 0.42.
As for `COC(=O)CCc1ccc(O)c(-n2nc3ccccc3n2)c1` [D], in series [6], the “Units Absorbance Loss” value is reported as 1.4002.
As to `COc1ccc2nn(-c3cc(C)cc(C(C)(C)C)c3O)nc2c1` [E], the “Units Absorbance Loss” value in series [6] is on record as 1.1872.
In series [3], `CC(C)CCCCCOC(=O)CCc1cc(-n2nc3ccc(C(F)(F)F)cc3n2)c(O)c(C(C)(C)C)c1` [FF, isooctyl 3-(5-trifluoromethyl-2H-benzotriazol-2-yl)-5-tert-butyl-4-hydroxyhydro-cinnamate] yielded a DE of 0.72 and a b of 0.54.
Regarding `COC(=O)CCc1cc(-n2nc3ccccc3n2)c(O)c(C(C)(C)C)c1` [F], the “Units Absorbance Loss” value in series [6] is given as 0.5259.
On to `CC(C)(c1ccccc1)c1ccc(O)c(-n2nc3ccccc3n2)c1` [G], for which the “Units Absorbance Loss” value in series [6] was found to be 0.4527.
As to `CC(C)(C)CC(C)(C)c1cc(C(C)(C)c2ccccc2)cc(-n2nc3ccccc3n2)c1O` [I], the “Units Absorbance Loss” value in series [6] is on record as 0.4299.
Same read-out and setting: next, `CC(C)(C)CC(C)(C)c1cc(-n2nc3ccccc3n2)c(O)c(C(C)(C)CC(C)(C)C)c1` [K]: 0.3777; `COC(=O)CCc1cc(-n2nc3ccccc3n2)c(O)c(C(C)(C)c2ccccc2)c1` [M]: 0.3433.
As for `CC(C)(C)c1cc(-n2nc3ccc(C#N)cc3n2)c(O)c(C(C)(C)C)c1` [N], the “Units Absorbance Loss” value in series [6] stood at 0.3098.
On to `CC(C)(c1ccccc1)c1cc(-c2ccccc2)c(O)c(-n2nc3ccccc3n2)c1` [R], for which the entries for the “Units Absorbance Loss” value in series [7] (setting [8]), in series [7] (after 1489 hours of exposure) and in series [7] (after 2521 hours of exposure) were 0.2424, 0.3724 and 0.4824, respectively.
Consider `CC(C)(C)c1cc(-n2nc3ccc(S(=O)(=O)c4ccccc4)cc3n2)c(O)c(C(C)(C)C)c1` [T], for which the “Units Absorbance Loss” value in series [7] (setting [8]) came to 0.1827; in series [7] (after 1264 hours of exposure), 0.1965; in series [7] (after 1489 hours of exposure) it was 0.2654; in series [7] (after 1518 hours of exposure), 0.2423; in series [7] (after 2521 hours of exposure), 0.3570. Further, in series [7], the “durability (low loss rate absorbance values after exposure)” value was “significantly more durable”.
Turning to `CC(C)(C)CC(C)(C)c1cc(-n2nc3ccc(Cl)cc3n2)c(O)c(C(C)(C)c2ccccc2)c1` [V, 5-Chloro-2-(2-hydroxy-3-α-cumyl-5-tert-octylphenyl)-2H-benzotriazole], the “Units Absorbance Loss” value in series [7] (after 1264 hours of exposure) amounted to 0.1719; in series [7] (after 1518 hours of exposure) it was 0.1955. In series [7], the “durability (low loss rate absorbance values after exposure)” value is given as “especially durable”.
With `CC(C)(C)CC(C)(C)c1cc(-n2nc3ccc(F)cc3n2)c(O)c(C(C)(C)c2ccccc2)c1` [W, 5-Fluoro-2-(2-hydroxy-3-α-cumyl-5-tert-octylphenyl)-2H-benzotriazole], the entries for the “Units Absorbance Loss” value in series [7] (after 1264 hours of exposure) and in series [7] (after 1518 hours of exposure) were 0.1655 and 0.1668, respectively. Further, the “durability (low loss rate absorbance values after exposure)” value in series [7] is listed as “especially durable”.
As for `CC(C)(C)CC(C)(C)c1cc(-c2ccccc2)c(O)c(-n2nc3ccccc3n2)c1` [X], the “Units Absorbance Loss” value in series [7] (after 1264 hours of exposure) amounted to 0.1796; in series [7] (after 1518 hours of exposure), 0.2220.
